In patent publication US20100061928A1, “LABELLED ANALOGUES OF HALOBENZAMIDES AS RADIOPHARMACEUTICALS” (Institut National De La Sante et De La Recherche Medicale …, priority 2006, published 2010):
Counter-ions that a name gives are not always drawn.

How the values were obtained:
human melanoma (M4Beu) = test: Cytotoxicity, Hoechst test, M4Beu; conditions: read-out: IC50 M4Beu; M4Beu human melanoma, 48 hours incubation, Hoechst test
[1] = tested on: grafted B16 F0 murine melanoma tumour; test: Biodistribution of the ^125I-labelled molecules in the melanoma-bearing mouse (autoradiography of whole-body sections); conditions: for Biodistribution, radioactivity concentration in B 16, Mean: B 16 tumour
[2] = tested on: human fibroblast cell lines; test: Cytotoxicity, Hoechst test, human fibroblasts; conditions: Homo sapiens, Fibroblast, 48 h, read-out: IC50 Fibroblast
[3] = Elimination of the molecules: cumulative urinary and faecal excretion 0-72 hours; assay type: in vivo, mouse
tumour = test: Dosimetry with regard to the tumour (MIRD programme, extrapolated to ^131I)
murine melanoma (B16 F0) = test: Cytotoxicity, Hoechst test, B16 F0
[4] = tested on: B16 F0 murine melanoma cells; test: Colony forming technique: chemotherapeutic and radiotherapeutic (^125I) effects in vitro; assay type: cell-based
Protocol: The colony forming technique is involved, that is to say the growth of colonies of clones starting from tumour cells (B16 F0 murine melanoma cells) inoculated at a low concentration. This method makes it possible to visualize the cytotoxic and cytostatic properties of the compounds studied. The study was carried out in three parts:
The experiment is carried out on 6-well plates where 200 cells are inoculated in 2 ml of DMEM medium. After 20 hours, the medium is withdrawn and replaced with 2 ml of medium comprising the labelled compound at the desired concentration. This study is carried out in comparison with control wells comprising DMEM medium alone. […] The plates are incubated for 8 days and then the medium is withdrawn. The wells are rinsed with PBS and methanol is added for 3 minutes. Once attached, the cells are coloured with crystal violet with a contact time of 3 minutes. Subsequently, the colonies comprising more than 50 cells are counted using a dedicated counter. The growth of the treated colonies of cells is quantified in comparison with the controls. The activity of the product is expressed by a percentage of inhibition:
100−[(number of treated colonies)/(number of control colonies)]×100

[5] = 1 H after i.v., 125I-labelled, dose = 2.1 MBq
[6] = 3 H after i.v., 125I-labelled, dose = 2.1 MBq
[7] = 6 H after i.v., 125I-labelled, dose = 2.1 MBq
[8] = 24 H after i.v., 125I-labelled, dose = 2.1 MBq
[9] = 72 H after i.v., 125I-labelled, dose = 2.1 MBq

CCN(CC)CCNC(=O)c1cccc2nc3cc(I)ccc3nc12 [compound 151, N-(2-diethylaminoethyl)-7-iodophenazine-1-carboxamide dihydrochloride]
IC50 (human melanoma (M4Beu)): 3.6 µM
Biodistribution, radioactivity concentration in B 16, Mean [1, 5]: 20.96 % ID/g
Biodistribution, radioactivity concentration in B 16, Mean [1, 6]: 23.65 % ID/g
Biodistribution, radioactivity concentration in B 16, Mean [1, 7]: 27.70 % ID/g
Biodistribution, radioactivity concentration in B 16, Mean [1, 8]: 11.47 % ID/g
Biodistribution, radioactivity concentration in B 16, Mean [1, 9]: 6.26 % ID/g
Biodistribution, radioactivity concentration in GB, Mean ([1]; GB, 3 H after i.v., 125I-labelled, dose = 2.1 MBq): 107.29 % ID/g
Biodistribution, radioactivity concentration in Ic, Mean [1, 5]: 56.33 % ID/g
Biodistribution, radioactivity concentration in Ic, Mean [1, 6]: 52.72 % ID/g
Biodistribution, radioactivity concentration in Ic, Mean [1, 7]: 52.58 % ID/g
Biodistribution, radioactivity concentration in Ic, Mean [1, 8]: 2.30 % ID/g
Biodistribution, radioactivity concentration in Sc, Mean [1, 5]: 11.25 % ID/g
Biodistribution, radioactivity concentration in Sc, Mean [1, 6]: 14.52 % ID/g
Biodistribution, radioactivity concentration in Sc, Mean [1, 7]: 16.09 % ID/g
Biodistribution, radioactivity concentration in Sc, Mean [1, 8]: 2.95 % ID/g
tumour concentration, times higher than with BZA ([1]; at 72 hours (FIG. 1B)): 8 times
Biodistribution, radioactivity concentration in blood, Mean [1, 5]: 3.92 % ID/g
Biodistribution, radioactivity concentration in blood, Mean [1, 6]: 1.39 % ID/g
Biodistribution, radioactivity concentration in brain, Mean [1, 5]: 1.79 % ID/g
Biodistribution, radioactivity concentration in brain, Mean [1, 6]: 0.44 % ID/g
tumour concentration, % of the injected dose per gram of tumour ([1]; from the first hour): 21 % ID/g
Biodistribution, radioactivity concentration in kidney, Mean [1, 5]: 9.45 % ID/g
Biodistribution, radioactivity concentration in kidney, Mean [1, 6]: 3.42 % ID/g
Biodistribution, radioactivity concentration in kidney, Mean [1, 7]: 1.55 % ID/g
Biodistribution, radioactivity concentration in liver, Mean [1, 5]: 10.94 % ID/g
Biodistribution, radioactivity concentration in liver, Mean [1, 6]: 5.83 % ID/g
Biodistribution, radioactivity concentration in liver, Mean [1, 7]: 4.04 % ID/g
Biodistribution, radioactivity concentration in liver, Mean [1, 8]: 1.44 % ID/g
Biodistribution, radioactivity concentration in lungs, Mean [1, 5]: 8.77 % ID/g
Biodistribution, radioactivity concentration in lungs, Mean [1, 6]: 2.84 % ID/g
Biodistribution, radioactivity concentration in lungs, Mean [1, 7]: 1.40 % ID/g
Biodistribution, radioactivity concentration in muscle, Mean [1, 5]: 1.27 % ID/g
Biodistribution, radioactivity concentration in muscle, Mean [1, 6]: 0.45 % ID/g
Biodistribution, radioactivity concentration in muscle, Mean [1, 7]: 0.42 % ID/g
Biodistribution, radioactivity concentration in pancreas, Mean [1, 5]: 6.63 % ID/g
Biodistribution, radioactivity concentration in pancreas, Mean [1, 6]: 1.53 % ID/g
Biodistribution, radioactivity concentration in spleen, Mean [1, 5]: 14.02 % ID/g
Biodistribution, radioactivity concentration in spleen, Mean [1, 6]: 13.84 % ID/g
Biodistribution, radioactivity concentration in spleen, Mean [1, 7]: 18.88 % ID/g
Biodistribution, radioactivity concentration in thyroid, Mean [1, 6]: 8.63 % ID/g
Biodistribution, radioactivity concentration in thyroid, Mean [1, 7]: 54.71 % ID/g
Biodistribution, radioactivity concentration in thyroid, Mean [1, 8]: 214.42 % ID/g
Biodistribution, radioactivity concentration in thyroid, Mean [1, 9]: 12.74 % ID/g
Biodistribution, radioactivity concentration in uvea, Mean [1, 5]: 14.19 % ID/g
Biodistribution, radioactivity concentration in uvea, Mean [1, 6]: 17.49 % ID/g
Biodistribution, radioactivity concentration in uvea, Mean [1, 7]: 14.74 % ID/g
Biodistribution, radioactivity concentration in uvea, Mean [1, 8]: 11.64 % ID/g
Biodistribution, radioactivity concentration in uvea, Mean [1, 9]: 11.19 % ID/g
IC50 [2]: 2.7 µM
Faecal elimination 0-72 hours (Faeces) ([3]; cumulative excretion 0-72 hours, faeces, mice in metabolic cages): 61%
Urinary and faecal elimination 0-72 hours (Total) ([3]; cumulative excretion 0-72 hours, urine + faeces): 66.8%
Urinary elimination 0-72 hours (Urine) ([3]; cumulative excretion 0-72 hours, urine, mice in metabolic cages): 5.8%
elimination route (in words) ([3]; urinary versus faecal, 0-72 hours): faecal route predominates
Effective period (tumour; extrapolated to 131I labelling): 30.0 h
Biological period (tumour; from biodistribution data): 35.5 hours
IC50 (murine melanoma (B16 F0); read-out: IC50 B16, B16 F0 murine melanoma, 48 hours incubation, Hoechst test): 3.6 µM
cytotoxic activity compared with DACA (in words) (murine melanoma (B16 F0); various cell lines studied (B16 F0, M4Beu, fibroblasts)): activities similar to that of DACA
inhibition at 2 µM ([4]; Mus musculus, B16F0, cold compound, 2 μM, colony forming, 48 hours contact, read-out: % of inhibition (Chemotherapeutic effects alone)): 21%
inhibition at 4 µM ([4]; Mus musculus, B16F0, cold compound, 4 μM, colony forming, 48 hours contact, read-out: % of inhibition (Chemotherapeutic effects alone)): 74%
inhibition at 6 µM ([4]; Mus musculus, B16F0, cold compound, 6 μM, colony forming, 48 hours contact, read-out: % of inhibition (Chemotherapeutic effects alone)): 87%
inhibition at 8 µM ([4]; Mus musculus, B16F0, cold compound, 8 μM, colony forming, 48 hours contact, read-out: % of inhibition (Chemotherapeutic effects alone)): 97%
inhibition at 10 µM ([4]; Mus musculus, B16F0, cold compound, 10 μM, colony forming, 48 hours contact, read-out: % of inhibition (Chemotherapeutic effects alone)): 100%
Cumulative effect (% inhib) (Radiotherapeutic and chemotherapeutic effects) ([4]; cold compound 151 at 2 μM with 0 activity of [125I]-151): 19%
